Series [1] in a line: Nitrapyrin volatilization: weight loss on a heated balance at 100° C. The format is physicochemical. The settings on record: for weight as a percent of original weight: heated balance 100° C.; for nitrapyrin sulfolane volatility ratio: nitrapyrin without solvent vs. solvent alone. The procedure:
Three materials were placed on a heated balance at […] and had their weights observed every minute for 10 minutes, as a percent of original weight. The materials were: • 1. pure nitrapyrin, • 2. 25% w/w solution of nitrapyrin in sulfolane, and • 3. solution of 25% nitrapyrin salt with equimolar (on acid basis) amount of maleic-itaconic copolymer, also in sulfolane (nitrapyrin/polyanionic polymer salt).
Therefore, the disclosed nitrapyrin-organic acid ionic mixtures substantially reduce the volatilization of nitrapyrin.
Tests were run to determine the relative volatility of the nitrapyrin solution without polyanionic polymer.

Series [2] in a line: Formation of solutions of nitrapyrin salts at 20% w/w nitrapyrin and grading of solutions. In kind it is physicochemical. More on the design: key: 5: Fully dissolved; 4: Mostly dissolved; 3: Mostly not dissolved; 2: Not dissolved; 1: Additional precipitate. An excerpt:
Example 2. Formation of Solutions of Nitrapyrin Salts and Grading of Solutions

Where [3] appears, read: solvent A dipropylene glycol, 20% w/w nitrapyrin.
Where [4] appears, read: solvent B PT700, 20% w/w nitrapyrin.
Setting [5] is: solvent C PT250, 20% w/w nitrapyrin.
[6] abbreviates: solvent D triethylene glycol, 20% w/w nitrapyrin.
[7] abbreviates: solvent E tripropylene glycol, 20% w/w nitrapyrin.
The mark [8] stands for this setting: solvent F propylene carbonate, 20% w/w nitrapyrin.
The mark [9] stands for this setting: solvent G triacetin, 20% w/w nitrapyrin.
Where [10] appears, read: solvent H Agnique AMD810, 20% w/w nitrapyrin.
[11] abbreviates: solvent I Agnique AMD3L, 20% w/w nitrapyrin.
Setting [12] is: solvent J Rhodiasolv ADMA10, 20% w/w nitrapyrin.
The mark [13] stands for this setting: solvent K Rhodiasolv ADMA810, 20% w/w nitrapyrin.
Where [14] appears, read: solvent L Rhodiasolv PolarClean, 20% w/w nitrapyrin.

On to `Clc1cccc(C(Cl)(Cl)Cl)n1` [nitrapyrin without solvent, nitrapyrin], for which the “weight as a percent of original weight” value in series [1] (experiment time 0 min) amounted to 100.00%; in series [1] (experiment time 1 min), 99.20%; in series [1] (experiment time 2 min), 98.56%; in series [1] (experiment time 3 min), 97.92%; in series [1] (experiment time 4 min), 96.00%; in series [1] (experiment time 5 min), 94.87%. In addition, the “weight as a percent of original weight” value in series [1] (experiment time 6 min) came to 93.75%; in series [1] (experiment time 7 min) it was 92.63%; in series [1] (experiment time 8 min), 90.87%; in series [1] (experiment time 9 min) it was 89.90%; in series [1] (experiment time 10 min) it was 89.10%. In addition, the “nitrapyrin sulfolane volatility ratio” value in series [1] (Delta 3-10) is given as 401%; in series [1] (Delta 4-10) it was 392%; in series [1] (Delta 5-10), 393%.
In the case of `O=C(O)CCC(=O)O` [succinic], the grade of solution in series [2] (setting [3]) was 3; in series [2] (setting [4]), 4; in series [2] (setting [5]), 1; in series [2] (setting [6]), 2; in series [2] (setting [7]), 3; in series [2] (setting [8]), 3. For the same compound, the grade of solution in series [2] (setting [9]) came to 2; in series [2] (setting [10]), 5; in series [2] (setting [11]), 5; in series [2] (setting [12]), 5; in series [2] (setting [13]) it was 5; in series [2] (setting [14]), 5.
In the case of `O=C(O)C(O)C(O)C(=O)O` (centres unmarked) [tartaric], the grade of solution was determined as 2 in series [2] (setting [3]); 2 in series [2] (setting [4]); 1 in series [2] (setting [5]); 1 in series [2] (setting [6]); 2 in series [2] (setting [7]); 2 in series [2] (setting [8]). Besides, the grade of solution in series [2] (setting [9]) is 2; in series [2] (setting [10]) it was 5; in series [2] (setting [11]), 5; in series [2] (setting [12]) it was 5; in series [2] (setting [13]), 5; in series [2] (setting [14]), 5.
For the compound adipic, the grade of solution turned out to be 2 in series [2] (setting [3]); 3 in series [2] (setting [4]); 1 in series [2] (setting [5]); 3 in series [2] (setting [6]); 4 in series [2] (setting [7]); 3 in series [2] (setting [8]). The grade of solution in series [2] (setting [9]) was 3; in series [2] (setting [10]) it was 5; in series [2] (setting [11]), 5; in series [2] (setting [12]), 5; in series [2] (setting [13]), 5; in series [2] (setting [14]), 5.
As to malic, the grade of solution in series [2] (setting [3]) turned out to be 2; in series [2] (setting [4]), 4; in series [2] (setting [5]), 1; in series [2] (setting [6]) it was 2; in series [2] (setting [7]), 2; in series [2] (setting [8]) it was 3. The grade of solution in series [2] (setting [9]) came out at 3; in series [2] (setting [10]) it was 5; in series [2] (setting [11]), 5; in series [2] (setting [12]), 5; in series [2] (setting [13]), 5; in series [2] (setting [14]), 5.

These data come from patent publication US20240389589A1, “CORROSION INHIBITORS FOR NITROGEN INHIBITOR FORMULATION” (Verdesian Life Sciences U.S., LLC, priority 2021, published 2024).
